Eight compounds from patent US20020177166A1, “Binding motif of a receptor” (MEDVET SCIENCE PTY.LTD., priority 2000, published 2002) can be followed below.

The target of series [1] is T1, βc association with 14-3-3ζ (Homo sapiens, UniProt P63104).
T1 construct: expressed in transfected cells; host or cells: HEK293T (βc)
T1 sequence (P63104 1-245): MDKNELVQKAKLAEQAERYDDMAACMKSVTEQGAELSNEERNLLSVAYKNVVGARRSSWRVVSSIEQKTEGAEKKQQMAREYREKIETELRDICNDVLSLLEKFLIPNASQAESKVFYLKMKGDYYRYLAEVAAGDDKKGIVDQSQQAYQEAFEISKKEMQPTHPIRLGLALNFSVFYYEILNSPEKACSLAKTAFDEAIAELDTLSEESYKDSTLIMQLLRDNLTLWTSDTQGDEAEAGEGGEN
The experiment in a line: GST-14-3-3-sepharose precipitation of βc from transfected HEK293T lysates with peptide competition. The format is binding. The note with it: for inhibition of βc association with GST-14-3-3 in pull-down: peptides 100 uM. On the procedure:
Lysates of HEK293T cells transfected with βc were immunoprecipitated with GST-14-3-3-sepharose in the absence or in the presence of chemically-synthesised peptides (100 uM) containing a βc sequence ([…]) or a Raf-1 sequence ([…]). In the phosphorylated peptides the relevant phosphorylated serine is underlined. The experiment was performed on 7.5% SDS-PAGE under reducing conditions. The presence of βc in the precipitation experiment was determined by Western blotting with anti-βc antibody (MAb 1C1).
Lysates of HEK293T cells transfected with βc were precipitated with GST-14-3-3-sepharose in the absence or in the presence of various concentrations of chemically-synthesised peptides. […] The appropriate phosphorylated serine in each peptide is underlined. The experiment was performed on 7.5% SDS-PAGE under reducing conditions. The presence of βc in the immunoprecipitates was determined by Western blotting with anti-βc antibody (MAb 1C1).
Cells were lysed in lysis buffer for 30 mins at 4° C. followed by centrifugation of the lysate for 15 mins at 12,000 g 4° C. […] Samples were boiled for 5 mins in SDS sample load buffer in the presence of 2-mercaptoethanol before separating precipitated proteins by SDS-PAGE.
Cell lysates were precipitated or immunoprecipitated in the presence of various concentrations of the following peptides: βc peptide sequence […] either non phosphorylated or serine phosphorylated and a scrambled peptide […]. Raf1 peptides corresponding to the sequence […] were also used and were either non phosphorylated or serine phosphorylated. The corresponding phosphorylated serine in each peptide is underlined. Peptides were synthesised by Chiron Mimotopes, Melbourne, Australia. The presence of βc in either the immunoprecipitation or precipitation experiment was determined by Western blotting with anti-βc antibody (MAb 1C1).

The test system of series [2] is Ser585 phosphorylation of βc in CTL-EN cells. Nature of the series: Ser585 phosphorylation of βc in CTL-EN cells expressing IL-3Ra and wtβc, immunoblot. In kind it is cell-based. The text has this: (§1) The βc was immunoprecipitated and then subjected to immunoblot analysis using the anti-phospho-Ser585βc antibody. […] Immunoprecipitates were electrophoresed on a polyacrylamide gel and the amount of radiolabelled receptor immunoprecipitated was quantified using a phosphorImager.
(§2) After various treatments, cells were lysed, βc was immunoprecipitated, and subjected to immunoblot analysis with the anti-phospho-Ser585 antibody.
Background: In western blotting, separated proteins are transferred to a membrane and probed.

The subject of series [3] is Ser585 phosphorylation of βc in MO7e cells. The experiment in a line: Ser585 phosphorylation and 14-3-3 recruitment in MO7e cells. The format is cell-based. The note with it: 30 μM H89 for 15 minutes prior to IL-3.
From the text: as §1, §2

The test system of series [4] is CC[C@H](C)[C@H](NC(=O)[C@H](CC(=O)O)NC(=O)[C@@H]1CCCN1C(=O)[C@H](CC(C)C)NC(=O)[C@H](CO)NC(=O)[C@H](CCCNC(=N)N)NC(=O)[C@H](CO)NC(=O)[C@H](Cc1c[nH]cn1)NC(=O)[C@@H]1CCCN1C(=O)[C@@H]1CCCN1C(=O)CNC(=O)[C@H](CC(C)C)NC(=O)[C@@H](N)CS)C(=O)N[C@@H](CC(C)C)C(=O)NCC(=O)O. The experiment in a line: purified protein, by the assay type. Particulars: other: peptide as PKA substrate, hyperbolic regression analysis; 21.0 °C.

Series [5] concerns 585Ser phosphorylation of βc in M1 myeloid leukaemic cells. The experiment in a line: 585Ser phosphorylation of βc in M1 cells, immunoblot. The format is cell-based. The note with it: 2 ng/ml GM-CSF. On the procedure: (§3) Lysates of HEK293T cells transfected with wild type βc were immunoprecipitated with anti-βc antibody (MAb 8E4). Immunoprecipitates were run on 7.5% SDS-PAGE under reducing conditions. […] M1 cells expressing GM-CSFRa and βc were either untreated (−) or stimulated with GM-CSF (2 ng/ml) for 30 seconds (+). Lysates of the M1 cells were immunoprecipitated with anti-βc antibody (MAb 8E4) and the immunoprecipitates run on 10% SDS-PAGE under reducing conditions.

The test system of a further series is TF-1. The experiment in a line: TF-1 proliferation assay. The note with it: recombinant human cytokine produced in E. coli. The format is cell-based. On the procedure: Acad. Sci., 91, 5838. Cytokine purity and quantitation was determined by HPLC analysis and Coomasie staining of SDS-PAGE separated proteins.
In another series the target is T2, PKA (Homo sapiens, UniProt P17612).
T2 construct: substrate Hisβc445-881 expressed in bacteria
The experiment in a line: In vitro kinase assay, PKA phosphorylation of hisβc445-881 with peptide competition. The format is biochemical. Particulars: 200 mM peptides. On the procedure:
Peptide competitions were also performed using 200 mM peptides containing the indicated sequences. b) The ability of PKA and CKII to phosphorylate Ser585 of hisβc445-881 was examined by immunoblot analysis using the anti-phospho-Ser585βc antibodies. Filters were probed firstly with anti-phospho-Ser585βc antibodies (top panel). […] Cells were then lysed and βc immunoprecipitated with 1C1. Ser585 phosphorylation of βc was determined using the anti-phospho-Ser585 antibodies (top panel). The filter was then stripped and re-probed with anti βc 1C1 antibodies.
In an effort to identify the kinase involved in the phosphorylation of Ser585, we firstly examined the ability of several kinases to phosphorylate the purified recombinant intracellular portion of βc (hisβc445-881) in vitro. Ser585 of βc lies within a SXXD motif which is known to be a CKII consensus phosphorylation site. Ser585 also lies within a RS motif which is a possible, but poor, PKA phosphorylation site. […] Additional bands for the PKA kinase reactions were evident due to the autocatalytic activity of PKA. […] In this experiment, the non-phospho-HSRSLP peptide is likely to act as a competitive substrate for phosphorylation of Ser585 of hisβc445-881 by PKA. […]

The test system of series [6] is anti-phospho-585Ser recognition of βc. The experiment in a line: Western blot of immunoprecipitated βc with peptide-preincubated anti-phospho-585Serβc antibody. The format is binding, human. Particulars: 100 fold molar excess of peptide. As for the experimental part: as §3
These possibilities were initially addressed using ^32P-orthophosphate labelled HEK 293T cells transfected with the GM-CSF receptor (α and βc subunits). These cells were stimulated with GM-CSF, total βc was immunoprecipitated and examined for ^32P-labelling. This is most likely due to the presence of sixty serine and threonine residues in the intracellular region of βc, some of which may be constitutively phosphorylated.

Series [7] deals with interaction of hisβc445-881 with p85 and 14-3-3. The experiment in a line: PKA-phosphorylated hisβc445-881 Sepharose pull-down from COS-7 lysates with peptide competition. The format is binding. Particulars: 200 mM competing peptides, 1 hour at 4° C. As for the experimental part: (a) analysis of PI 3-kinase activity. […] Cells were then lysed and phospho-tyrosine containing proteins were immunoprecipitated (2×10^7 cells/IP) using the 4G10 antibody. Immunoprecipitates were washed in 1× PI 3-kinase buffer (20 mM HEPES, pH 7.5, 5 mM MgCl2, 1 mM EGTA) and PI 3-kinase activity was analysed in a lipid kinase assay using phosphatidyl inositol and g^32PATP as substrates as described in the “Materials and Methods”. Autoradiogram of TLC plate is shown with ^32P-labelled phosphatidyl inositols (PIP) and the origin indicated. […] (b) CTL-EN cells were also examined for the association of βc with p85. […] Cells were then lysed and the βc immunoprecipitated (2×10^7 cells/IP) with the 1C1 anti-βc specific mAb. Immunoprecipitates were then subjected to SDS-PAGE, transferred to nitrocellulose and immunoblotted with anti-p85 (1 mg/ml) followed by detection with HRP-conjugated anti-rabbit IgG antibody and ECL. The filters were then stripped, probed with anti-SHP2 (1 mg/ml), stripped again and finally probed with 1C1 anti-βc (2 mg/ml). […] The association of hisβc445-881 with p85 was also assessed in pull-down experiments together with peptide competition. (c) List of peptides used in the hisbβc445-881 pull-down experiment. S refers to a phospho-serine residue. […]

Ends that are not written are not given here.

Regarding “CLSQRQRSTSTPNVHM [serine phosphorylated Raf-1 peptide] (also: serine phosphorylated, position not given here)”, the “inhibition of βc association with GST-14-3-3 in pull-down” value in series [1] is listed as “able to inhibit βc association with 14-3-3”.
In the case of `O=S(=O)(NCCNC/C=C/c1ccc(Br)cc1)c1cccc2cnccc12` [H89], the “effect on IL-3 induced phosphorylation of Ser585” value in series [2] (30 μM H89 for 15 minutes prior to IL-3) and in [3] was “significantly reduced the IL-3 induced phosphorylation of Ser585” in each case.
Regarding CPLSLRSKPSPGPGP, in series [1] (various concentrations of peptides (FIG. 8)), the “inhibition of βc association with 14-3-3, dose dependence and specificity” value is “failed to inhibit this association”.
As to “CLSQRQRSTSTPNVHM [nonphosphorylated Raf-1 peptide]”, the “inhibition of βc association with GST-14-3-3 in pull-down” value in series [1] is reported as “did not”.
Consider PKA (Homo sapiens), for which, in [4], the Km is 376 µM and the Vmax was 250 nmol/min/mg.
Consider `CCCC(=O)Nc1ncnc2c1ncn2[C@@H]1O[C@@H]2COP(=O)(O)O[C@H]2[C@H]1OC(=O)CCC` [db-cAMP, dibutyryl cAMP], for which, in series [2] (50 ng/ml IL-3, 50 μM forskolin or 100 μM dibutyryl cAMP), the “Ser585 phosphorylation of βc after stimulation” value was “increased Ser585 phosphorylation”.
For “GM-CSF: recombinant human GM-CSF produced in E. coli”, the “585Ser phosphorylation of βc” value in series [5] is “strongly upregulated ^585Ser phosphorylation of βc”. For the same compound, the “ED50 in TF-1 proliferation assay” value with TF-1 was 0.03 ng/mL.
For the compound CLPLSGPDSHIRGPL [scrambled peptide], in the series with PKA, the “effect on phosphorylation of hisβc445-881 by PKA” value is recorded as “did not”. The “inhibition of anti-phospho-585Ser recognition of βc” value in series [6] is “did not”. In series [7], the “effect on interaction of p85 with hisβc445-881” value is given as “had no apparent effect on this interaction”.

One may read the Km as the substrate concentration at which the rate is half of its maximum. Broadly, the Vmax is the top rate of the reaction or transport when substrate is in excess.
